Results as given in patent US12076354B2, “Antibiotic with spirulina platensis and plant extracts” (KING FAISAL UNIVERSITY, priority 2022, dated 2024).

Key:
[1] = test system: multidrug resistant strain of Acinetobacter baumannii; test: Disk diffusion susceptibility method, MDR Acinetobacter baumannii isolate; assay type: cell-based; details: isolated MDR strain from patients with Type 2 Diabetes Mellitus; disks with 20 μl antibiotic composition, 10 μg colistin or 15 μg Tigecycline; 2 hours at 4° C., then 37° C.
Protocol: (§1) The antibiotic composition was tested using the disk diffusion susceptibility method previously published by Bauer et al. (Bauer, A. W., et al., “Antibiotic susceptibility testing by a standardized single disk method,” Amer J Clin Pathol 45: pp. 495-496 ([…])). Briefly, a multidrug resistant strain of Acinetobacter baumannii was isolated from patients with Type 2 Diabetes Mellitus in a hospital setting in Saudi Arabia. Whatman No. 1 sterilized-paper disks were saturated with 20 μl of the antibiotic composition. Disks were then dried and placed on the surface of a medium inoculated with either the isolated MDR Acinetobacter baumannii or Acinetobacter baumannii (ATCC17978). A further test was run using either 10 μg colistin or 15 μg Tigecycline as controls. The plates containing the inoculated medium were kept for 2 hours at 4° C. to ensure the diffusion of the bioactive material, and then were incubated at 37° C. Disks containing 30 μl of water were used as a negative control.

[2] = test system: Acinetobacter baumannii (ATCC17978); test: Disk diffusion susceptibility method, Acinetobacter baumannii ATCC17978; assay type: cell-based; details: disks with 20 μl antibiotic composition, 10 μg colistin or 15 μg Tigecycline, 2 hours at 4° C., then 37° C.
Protocol: as §1

Row | Molecule | zones of inhibition [1] | zones of inhibition [2]
1 | CN(C)c1cc(NC(=O)CNC(C)(C)C)c(O)c2c1C[C@H]1C[C@H]3[C@H](N(C)C)C(O)=C(C(N)=O)C(=O)[C@@]3(O)C(O)=C1C2=O [Tigecycline] | not around the traditional antibiotic controls | not around the traditional antibiotic controls
2 | colistin | not around the traditional antibiotic controls | not around the traditional antibiotic controls
